Six molecules from US20160279154A1, “MITOCONDRIALLY-TARGETED TIMOQUINONES AND TOLUQUINONES” (MITOTECH SA, priority 2014, published 2016) can be followed below.

Entries after “also recorded” stand apart in the source; their conditions may differ.

Data set [1] has as its system energized mitochondria. Put plainly: Reduction of SkQB by energized mitochondria. It counts as biochemical. The note with it: FIG. 19.
Data set [2] has as its system isolated mitochondria. The data set can be described thus: Antioxidant activity in isolated mitochondria damaged by the Fenton reaction. The settings on record: FIG. 20. On the procedure: Antioxidant activity was measured in isolated mitochodnria subjected to oxidative damage by the Fenton reaction (method described in Antonenko et al 2008).
For data set [3], the system named is mitochondria. The data set can be described thus: Hydrogen peroxide production by mitochondria in the presence of antimycin A. It counts as biochemical. The note with it: FIG. 21. The text has this: In the next experiment we measured hydrogen peroxide production by mitochondria in the presence of antimycin A (as described in Skulachev et al 2010, Biochim Biophys Acta, 1797(6-7), 878-8).

Data set [4] deals with multi-drug resistance (MDR) proteins in HeLa cells. The data set can be described thus: Accumulation of SkQ variants in HeLa cells / expulsion by MDR pumps (flow cytometry). The class given is cell-based, human. The settings on record: for order of decreasing MDR-affinity: correlation suggested by the example; for accumulation in HeLa cells after MDR inhibitor: 100 nM SkQs, Pluronic L61 30 ug/ml added 10 minutes before, FIG. 17. On the procedure:
In the following experiment we have evaluated MDR expulsion of a timoquinone based SkQRT. HeLa cells were treated with 100 nM SkQRT and the activity of multidrug resistance pumps was estimated by fluorescence measurement using a Beckman Coulter FC 500 flow cytometer. […] Cells were incubated with 100 nM SkQs. After 60 minute, the medium was changed to control medium without SkQs (indicated with vertical line). […] It must be noted that MDR pumps are usually activated in tumor cells (for example HeLa), but not in normal non-malignant cells (fibroblasts or 3T3 cells).
On the technique in general: A flow cytometer gives signals particle by particle.

Data set [5] relates to human fibroblasts. The data set can be described thus: Protection from peroxide-induced cell death. The settings on record: for protection from H2O2-induced apoptosis: FIG. 22. It counts as cell-based. On the procedure: Its activity was compared to the one of the most efficient MTA-SkQR1. The experiment was performed according to Antonenko et al., (Biochem. (Mosc.) (2008) 73:1273-1287 and the results are shown in FIG. 11.
The experiment was performed according to Antonenko et al., (Biochem. (Mosc.) (2008) 73:1273-1287. (see FIG. 12).
These experiments were performed as described in Antonenko et al (2008).

The test system of data set [6] is electron transport chain (ETC) of mitochondria isolated from rat heart.
The test system of data set [7] is rat liver mitochondria. The data set can be described thus: H2O2 formation by rat liver mitochondria (prooxidant effect, Amplex Red). The note with it: up to 15 um concentrations in the medium; FIG. 15. It counts as biochemical. How it is done:
Incubation medium contained 0.18 M mannitol, 0.07 M sucrose, 0.2 mM Tris-phosphate, 0.5 mM EGTA, pH 7.2, 20 mM Tris-succinate, 2 uM Amplex Red, 5 U horseradish Peroxidase, 6 mM aminotriazole (an inhibitor of catalase) and mitochondria corresponding to 0.25 mg protein. Excitation wavelength was of 563 nm, Emission wavelength was of 585 nm.

Data set [8] has as its system mitochondria. The note with it: mitochondria supplemented with certain concentrations of SkQT; FIG. 8. The text has this:
Several compounds according to the invention were synthesized as described above and tested for biological activity as described in Antonenko et al., (Biochem. (Mosc.) (2008) 73:1273-1287).

For data set [9], the system named is Y. lipolytica mitochondria. Put plainly: H2O2 formation by Y. lipolytica mitochondria (Amplex red). It counts as biochemical. The settings on record: for rate of H2O2 formation by Y. lipolytica mitochondria: certain concentrations, 0.1 mg mitochondrial protein, FIG. 13, 14. How it is done: The experiment was performed in the following conditions: incubation medium contained 0.6 M mannitol, 20 mM Tris-succinate,0.5 mM EGTA, 0.2 mM Tris-phosphate, pH 7.2, 2 uM Amplex red, horse radish peroxidase (5 U) and mitochondria corresponding to 0.1 mg protein. […] Measurements were made using absorption/emission 530/590 nm.

For data set [10], the system named is primary cultured human fibroblasts. The data set can be described thus: Accumulation in primary cultured human fibroblasts (non-tumor cells). The class given is cell-based. The settings on record: FIG. 18.

Take `O=C1C=CC(=O)C(CCCCCCCCCC[P+](c2ccccc2)(c2ccccc2)c2ccccc2)=C1` [SkQB, 10-(1,4-benzoquinonyl-2)decyltriphenylphosphonium bromide]: the “reduction by energized mitochondria” value in [1] is given as “can be reduced by energized mitochondria in an antimycin-sensitive way”. For the same molecule, the antioxidant activity result in [2] is given as “very weak antioxidant activity; also recorded: lower compared to SkQ1”. For the same molecule, in data set [3], the “hydrogen peroxide production (pro-oxidant activity)” value was “pronounced pro-oxidant activity; also recorded: to a greater extent than SkQ1”. Moreover, the “order of decreasing MDR-affinity” value in data set [4] is “SkQB>SkQT>SkQ1>SkQ3”. In data set [5], the “protection from H2O2-induced apoptosis” value is recorded as “weak protection”.

Regarding “10-(2-methyl-1,4-benzoquinonyl-5)decyltriphenylphosphonium bromide [SkQT]”, the “effect of myxothiasole on reduction of the quinone form” value in [6] (1 uM myxothiasole added at 10 min point, FIG. 10) is “prevented further reduction”. The reduction by mitochondria result in data set [6] (rat heart mitochondria 0.05 mg/ml, 5 mM succinate, 2 uM rotenone, 100 nM SkQT, FIG. 9) is “can be reduced by mitochondria”. The “prooxidant effect: stimulation of H2O2 formation by rat liver mitochondria at high concentrations” value in data set [7] is “did not stimulate H202 formation”. In data set [8], the “protection of mitochondria from oxidative damage (malondialdehyde concentration)” value was “successfully protected mitochondria from oxidative damage”. Moreover, the “rate of H2O2 formation by Y. lipolytica mitochondria” value in [9] is “dramatically decrease”. The “window between lowest and highest no effect doses” value in [9] (compared with SkQ1, biological examples 5 and 6) was “much wider”. Moreover, the “hydrogen peroxide formation by mitochondria at optimal concentration” value in data set [9] (optimal concentration, biological examples 5 and 6) was “almost completely prevented hydrogen peroxide formation”. For the same molecule, the “prevention of peroxide-induced cell death” value in [5] (FIG. 11) is “very efficient”. Also, in [5] (FIG. 12), the “protection from H2O2-induced cell death by different dosages” value is listed as “protection of human fibroblasts”. Moreover, the “protection from H2O2-induced apoptosis” value in [5] was “good protection”.

Consider `CC1=C(C)C(=O)C(CCCCCCCCCC[P+](c2ccccc2)(c2ccccc2)c2ccccc2)=C(C)C1=O` [SkQ3], for which, in data set [4], the “order of decreasing MDR-affinity” value was “SkQB>SkQT>SkQ1>SkQ3”.

`CC1=C(C)C(=O)C(CCCCCCCCCC[P+](c2ccccc2)(c2ccccc2)c2ccccc2)=CC1=O.[Br-]` [SkQ1, reference compound]: the “prooxidant effect: stimulation of H2O2 formation by rat liver mitochondria at high concentrations” value in data set [7] is on record as “prooxidant effect”. For the same molecule, the “rate of H2O2 formation by Y. lipolytica mitochondria” value in data set [9] was “considerably lower”. For the same molecule, the “order of decreasing MDR-affinity” value in data set [4] is on record as “SkQB>SkQT>SkQ1>SkQ3”. Further, the “protection from H2O2-induced apoptosis” value in data set [5] was “good protection”.

As for `CC/N=c1/cc2oc3cc(NCC)c(C)cc3c(-c3ccccc3C(=O)OCCCCCCCCCCC3=CC(=O)C(C)=C(C)C3=O)c-2cc1C` [SkQR1, reference compound], the “accumulation in human fibroblasts, SkQR1 compared with SkQRT1” value in data set [10] was “no significant difference”. The “accumulation in HeLa cells after MDR inhibitor” value in data set [4] is recorded as “increased accumulation”.

`CCN=c1cc2oc3cc(NCC)c(C)cc3c(-c3ccccc3C(=O)OCCCCCCCCCCC3=CC(=O)C(C)=CC3=O)c-2cc1C` [SkQRT1, 10-(2-methyl-1,4-benzoquinonyl-5)-decyl ester of rhodamine 19]: in data set [10], the “accumulation in human fibroblasts, SkQR1 compared with SkQRT1” value is “no significant difference”. Further, the “accumulation in HeLa cells after MDR inhibitor” value in data set [4] is “increased accumulation”.
